Experimental data reported in the kinase profiling compilation of Christmann-Franck et al. (2016).

Assays:
Test in all cases: radiometric filter-binding kinase assay, Kinase HotSpot
Settings in all cases: compound 0.5 µM; ATP 10 µM
[1] = molecular target: DYRK1B (human) (UniProt Q9Y463)
[2] = molecular target: LTK (human) (UniProt P29376)
[3] = molecular target: NEK6 (human) (UniProt Q9HC98)
[4] = molecular target: NEK7 (human) (UniProt Q8TDX7)
[5] = molecular target: PRKCH (human) (UniProt P24723)
[6] = molecular target: STK33 (human) (UniProt Q9BYT3)
[7] = molecular target: CDK1 CCNA2 (human) (UniProt P06493+P20248)
[8] = molecular target: CDK1 CCNB1 (human) (UniProt P06493+P14635)
[9] = molecular target: CDK2 CCNA2 (human) (UniProt P24941+P20248)
[10] = molecular target: CDK2 CCNE1 (human) (UniProt P24941+P24864)
[11] = molecular target: CDK3 CCNE1 (human) (UniProt Q00526+P24864)
[12] = molecular target: CDK4 CCND1 (human) (UniProt P24385+P11802)
[13] = molecular target: CDK4 CCND3 (human) (UniProt P30281+P11802)
[14] = molecular target: CDK5 CDK5R1 p25 (human) (UniProt Q00535+Q15078)
[15] = molecular target: CDK5 CDK5R1 p35 (human) (UniProt Q00535+Q15078)
[16] = molecular target: CDK6 CCND1 (human) (UniProt Q00534+P24385)
[17] = molecular target: CDK6 CCND3 (human) (UniProt P30281+Q00534)
[18] = molecular target: CDK7 CCNH MNAT1 (human) (UniProt P50613+P51948+P51946)
[19] = molecular target: CDK9 CCNK (human) (UniProt O75909+P50750)
[20] = molecular target: CDK9 CCNT1 (human) (UniProt P50750+O60563)
[21] = molecular target: MAP3K7 TAB1 (human) (UniProt O43318+Q15750)
[22] = molecular target: AURKB (human) (UniProt Q96GD4)
[23] = molecular target: AURKC (human) (UniProt Q9UQB9)
[24] = molecular target: FLT3 (human) (UniProt P36888)

Chain of CDK2 CCNA2 (human) (P20248 whole entry, looked up, other chains not shown): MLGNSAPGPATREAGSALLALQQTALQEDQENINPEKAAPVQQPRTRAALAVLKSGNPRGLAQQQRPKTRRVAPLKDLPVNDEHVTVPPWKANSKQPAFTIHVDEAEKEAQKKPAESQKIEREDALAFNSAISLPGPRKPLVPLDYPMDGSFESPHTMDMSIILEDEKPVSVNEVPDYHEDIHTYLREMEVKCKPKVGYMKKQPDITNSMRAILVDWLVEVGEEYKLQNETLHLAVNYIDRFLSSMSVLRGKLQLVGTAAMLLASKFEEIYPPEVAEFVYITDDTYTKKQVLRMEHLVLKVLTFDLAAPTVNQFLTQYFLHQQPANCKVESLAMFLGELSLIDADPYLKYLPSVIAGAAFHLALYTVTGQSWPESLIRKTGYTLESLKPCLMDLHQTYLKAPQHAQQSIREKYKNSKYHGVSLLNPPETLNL
Chain of MAP3K7 TAB1 (human) (O43318 whole entry, looked up): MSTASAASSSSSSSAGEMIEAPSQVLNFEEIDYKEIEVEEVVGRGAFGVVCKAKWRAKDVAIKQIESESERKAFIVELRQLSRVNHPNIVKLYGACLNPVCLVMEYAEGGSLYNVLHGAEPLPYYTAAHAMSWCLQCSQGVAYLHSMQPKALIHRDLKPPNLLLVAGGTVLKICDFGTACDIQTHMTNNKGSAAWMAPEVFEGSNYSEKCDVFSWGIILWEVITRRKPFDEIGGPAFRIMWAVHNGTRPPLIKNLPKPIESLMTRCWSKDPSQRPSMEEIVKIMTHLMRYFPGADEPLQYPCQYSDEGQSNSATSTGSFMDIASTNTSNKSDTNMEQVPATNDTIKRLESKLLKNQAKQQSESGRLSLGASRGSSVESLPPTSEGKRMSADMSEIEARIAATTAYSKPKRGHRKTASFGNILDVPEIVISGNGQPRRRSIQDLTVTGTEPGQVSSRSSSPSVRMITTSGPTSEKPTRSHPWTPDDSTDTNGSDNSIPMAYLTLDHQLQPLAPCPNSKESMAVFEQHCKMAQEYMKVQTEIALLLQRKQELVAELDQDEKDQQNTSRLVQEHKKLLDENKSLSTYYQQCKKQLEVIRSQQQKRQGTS
Chain of MAP3K7 TAB1 (human) (Q15750 whole entry, looked up): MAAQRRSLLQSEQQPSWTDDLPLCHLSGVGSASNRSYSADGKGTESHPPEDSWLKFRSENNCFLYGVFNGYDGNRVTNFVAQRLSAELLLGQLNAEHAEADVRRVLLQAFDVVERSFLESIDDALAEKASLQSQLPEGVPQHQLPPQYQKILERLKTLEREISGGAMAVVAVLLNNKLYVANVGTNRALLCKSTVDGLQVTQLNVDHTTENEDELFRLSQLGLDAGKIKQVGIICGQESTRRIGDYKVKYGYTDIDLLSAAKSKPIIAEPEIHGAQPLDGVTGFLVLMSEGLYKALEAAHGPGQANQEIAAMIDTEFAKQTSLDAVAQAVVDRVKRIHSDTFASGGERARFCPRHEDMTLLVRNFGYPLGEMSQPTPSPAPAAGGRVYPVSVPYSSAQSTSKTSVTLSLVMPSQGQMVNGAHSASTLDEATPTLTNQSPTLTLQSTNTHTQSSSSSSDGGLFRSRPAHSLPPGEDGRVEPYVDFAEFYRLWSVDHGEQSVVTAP
Chain of STK33 (human) (Q9BYT3 whole entry, looked up): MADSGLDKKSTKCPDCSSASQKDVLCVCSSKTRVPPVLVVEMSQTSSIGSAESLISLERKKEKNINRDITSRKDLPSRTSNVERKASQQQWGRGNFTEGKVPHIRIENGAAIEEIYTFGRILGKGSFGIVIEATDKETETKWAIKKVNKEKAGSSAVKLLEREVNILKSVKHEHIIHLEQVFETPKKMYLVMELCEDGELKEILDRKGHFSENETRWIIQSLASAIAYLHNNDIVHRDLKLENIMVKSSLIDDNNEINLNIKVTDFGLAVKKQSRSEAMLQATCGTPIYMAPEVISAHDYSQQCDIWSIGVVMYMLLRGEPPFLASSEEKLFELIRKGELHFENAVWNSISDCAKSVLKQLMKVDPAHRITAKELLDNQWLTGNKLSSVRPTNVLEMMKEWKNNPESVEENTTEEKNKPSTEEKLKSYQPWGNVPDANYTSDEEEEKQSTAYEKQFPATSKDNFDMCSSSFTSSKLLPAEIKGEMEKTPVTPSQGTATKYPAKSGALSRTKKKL
Chain of CDK2 CCNE1 (human) (P24864 whole entry, looked up, other chains not shown): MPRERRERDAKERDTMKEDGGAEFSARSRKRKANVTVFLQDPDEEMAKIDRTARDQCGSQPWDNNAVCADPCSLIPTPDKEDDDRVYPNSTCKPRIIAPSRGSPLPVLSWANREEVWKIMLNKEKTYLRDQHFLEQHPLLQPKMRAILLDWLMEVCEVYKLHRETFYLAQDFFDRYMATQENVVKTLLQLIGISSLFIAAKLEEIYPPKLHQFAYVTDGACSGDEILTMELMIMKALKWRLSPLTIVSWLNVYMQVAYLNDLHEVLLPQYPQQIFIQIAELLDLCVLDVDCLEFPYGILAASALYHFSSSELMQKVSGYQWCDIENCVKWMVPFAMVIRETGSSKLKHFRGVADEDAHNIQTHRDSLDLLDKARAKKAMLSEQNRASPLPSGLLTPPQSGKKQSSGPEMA
Chain of CDK3 CCNE1 (human) (P24864 whole entry, looked up): as the sequence (P24864 whole entry, looked up, other chains not shown) above
Chain of CDK3 CCNE1 (human) (Q00526 whole entry, looked up): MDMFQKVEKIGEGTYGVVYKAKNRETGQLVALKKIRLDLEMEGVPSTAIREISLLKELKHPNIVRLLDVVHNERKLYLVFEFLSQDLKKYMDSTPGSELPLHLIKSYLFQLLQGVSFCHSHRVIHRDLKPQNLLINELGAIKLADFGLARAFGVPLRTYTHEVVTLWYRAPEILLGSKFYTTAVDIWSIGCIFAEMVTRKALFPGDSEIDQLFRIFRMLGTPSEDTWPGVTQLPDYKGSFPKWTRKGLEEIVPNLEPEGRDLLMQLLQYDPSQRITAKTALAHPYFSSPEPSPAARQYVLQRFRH
Chain of CDK5 CDK5R1 p25 (human) (Q00535 whole entry, looked up): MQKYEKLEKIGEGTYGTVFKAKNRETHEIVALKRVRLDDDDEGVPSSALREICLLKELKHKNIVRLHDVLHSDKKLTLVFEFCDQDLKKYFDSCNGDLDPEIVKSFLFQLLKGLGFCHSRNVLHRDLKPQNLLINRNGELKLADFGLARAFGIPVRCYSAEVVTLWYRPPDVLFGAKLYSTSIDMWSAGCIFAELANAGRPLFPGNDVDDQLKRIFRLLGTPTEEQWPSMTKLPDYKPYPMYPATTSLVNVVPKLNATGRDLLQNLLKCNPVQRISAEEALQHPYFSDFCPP
Chain of CDK5 CDK5R1 p25 (human) (Q15078 whole entry, looked up): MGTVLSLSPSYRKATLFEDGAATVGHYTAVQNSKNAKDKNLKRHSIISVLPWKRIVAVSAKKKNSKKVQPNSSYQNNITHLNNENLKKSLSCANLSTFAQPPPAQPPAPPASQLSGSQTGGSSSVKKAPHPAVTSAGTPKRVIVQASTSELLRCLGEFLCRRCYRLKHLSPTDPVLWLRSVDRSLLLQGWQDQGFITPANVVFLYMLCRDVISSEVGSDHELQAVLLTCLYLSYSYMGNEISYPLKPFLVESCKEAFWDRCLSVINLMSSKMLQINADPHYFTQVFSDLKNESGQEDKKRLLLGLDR
Chain of LTK (human) (P29376 whole entry, looked up): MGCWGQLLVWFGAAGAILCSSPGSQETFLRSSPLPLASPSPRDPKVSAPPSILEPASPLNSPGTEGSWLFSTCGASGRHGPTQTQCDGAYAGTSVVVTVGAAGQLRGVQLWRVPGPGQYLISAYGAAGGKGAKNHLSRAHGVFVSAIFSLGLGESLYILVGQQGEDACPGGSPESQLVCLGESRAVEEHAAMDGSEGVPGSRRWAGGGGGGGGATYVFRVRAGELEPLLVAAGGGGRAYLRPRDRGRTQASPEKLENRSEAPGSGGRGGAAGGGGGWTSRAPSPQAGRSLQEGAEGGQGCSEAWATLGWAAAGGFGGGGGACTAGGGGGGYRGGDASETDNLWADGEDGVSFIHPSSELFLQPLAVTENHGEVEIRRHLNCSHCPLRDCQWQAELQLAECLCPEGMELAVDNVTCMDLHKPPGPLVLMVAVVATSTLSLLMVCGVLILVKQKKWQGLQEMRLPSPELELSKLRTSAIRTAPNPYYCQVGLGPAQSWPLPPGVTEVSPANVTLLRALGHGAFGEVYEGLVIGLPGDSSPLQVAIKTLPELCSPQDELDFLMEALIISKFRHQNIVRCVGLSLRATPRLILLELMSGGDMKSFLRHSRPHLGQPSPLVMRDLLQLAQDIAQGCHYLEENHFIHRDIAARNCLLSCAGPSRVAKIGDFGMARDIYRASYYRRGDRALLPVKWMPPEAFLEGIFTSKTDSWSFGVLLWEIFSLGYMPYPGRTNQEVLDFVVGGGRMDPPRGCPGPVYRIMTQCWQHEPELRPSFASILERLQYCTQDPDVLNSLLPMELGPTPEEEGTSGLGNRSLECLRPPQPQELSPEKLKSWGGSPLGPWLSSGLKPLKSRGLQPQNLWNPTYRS
Chain of PRKCH (human) (P24723 whole entry, looked up): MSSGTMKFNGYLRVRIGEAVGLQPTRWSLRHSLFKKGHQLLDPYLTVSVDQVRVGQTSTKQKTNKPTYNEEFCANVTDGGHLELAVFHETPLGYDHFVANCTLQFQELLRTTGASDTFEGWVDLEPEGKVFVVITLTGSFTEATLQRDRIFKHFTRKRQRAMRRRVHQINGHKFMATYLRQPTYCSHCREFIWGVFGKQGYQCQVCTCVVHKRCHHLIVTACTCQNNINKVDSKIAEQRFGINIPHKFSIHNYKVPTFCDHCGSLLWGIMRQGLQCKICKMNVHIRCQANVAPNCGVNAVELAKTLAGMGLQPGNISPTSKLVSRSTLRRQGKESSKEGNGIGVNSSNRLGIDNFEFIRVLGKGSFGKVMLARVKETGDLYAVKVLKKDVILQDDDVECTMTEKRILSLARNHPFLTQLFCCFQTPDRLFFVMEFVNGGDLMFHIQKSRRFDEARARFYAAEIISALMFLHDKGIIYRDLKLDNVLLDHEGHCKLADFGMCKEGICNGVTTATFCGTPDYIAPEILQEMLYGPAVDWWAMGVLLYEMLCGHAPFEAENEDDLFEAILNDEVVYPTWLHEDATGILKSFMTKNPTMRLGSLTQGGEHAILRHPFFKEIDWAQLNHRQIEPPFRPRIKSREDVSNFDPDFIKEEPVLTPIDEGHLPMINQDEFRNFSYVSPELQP

| SMILES | residual activity [1] [%] | residual activity [2] [%] | residual activity [5] [%] | residual activity [6] [%] | residual activity [7] [%] | residual activity [8] [%] | residual activity [9] [%] | residual activity [10] [%] | residual activity [11] [%] | residual activity [12] [%] | residual activity [13] [%] | residual activity [14] [%] | residual activity [15] [%] | residual activity [16] [%] | residual activity [17] [%] | residual activity [18] [%] | residual activity [19] [%] | residual activity [20] [%] | residual activity [21] [%] | other results |
| --- | --- | --- | --- | --- | --- | --- | --- | --- | --- | --- | --- | --- | --- | --- | --- | --- | --- | --- | --- | --- |
| O=C1Nc2ccc3ncsc3c2/C1=C/c1c[nH]cn1 | 11.3 | 83 | 41.2 | 35.7 |  |  |  |  |  |  |  |  |  |  |  |  |  |  |  | residual activity [3]: 93.2%; residual activity [4]: 79.6% |
| CCOc1nc(NC(=O)Cc2cc(OC)ccc2OC)cc(N)c1C#N | 99.2 | 97.3 | 94.3 | 97.7 | 92.2 | 108 | 104 | 88.9 | 97.7 | 97.6 | 95.2 | 96.8 | 105 | 95.2 | 98.6 | 103 | 89.2 | 100 | 96.6 |  |
| NC(=O)c1ccc(-c2nc(-c3ccccn3)c(-c3ccc4c(c3)OCCO4)[nH]2)cc1 | 100 | 93.5 | 83.3 | 98.3 | 97.1 | 83.9 | 95 | 93.5 | 99.4 | 84 | 94.1 | 91 | 98 | 106 | 104 | 97.6 | 97.1 | 96.8 | 104 |  |
| Cc1cc(Nc2cc(N3CCN(C)CC3)nc(Sc3ccc(NC(=O)C4CC4)cc3)n2)[nH]n1 | 98.8 | 84.2 | 111 | 90.1 | 99.1 | 102 | 87.8 | 94.4 | 95.3 | 97.4 | 99.2 | 93.8 | 100 | 95.2 | 121 | 101 | 102 | 93.1 | 90.7 | residual activity [22]: 4.89%; residual activity [23]: 40.4%; residual activity [24]: 6.67% |
